This is an account of results in patent publication US5032599A, “N-(pyrrol-l-yl)pyridinamines” (Hoechst-Roussel Pharmaceuticals Inc., priority 1988, dated 1991).

Counter-ions that a name gives are not always drawn.

This test has as its system Scopolamine Induced Memory Deficit. Put plainly: Dark Avoidance Assay (reversal of scopolamine induced memory deficit). In kind it is in vivo. The settings on record: mice, retest after 24 hours. On the procedure:
Dark Avoidance Asssay In this assay mice are tested for their ability to remember an unpleasant stimulus for a period of 24 hours. A mouse is placed in a chamber that contains a dark compartment; a strong incandescent light drives it to the dark compartment, where an electric shock is administered through metal plates on the floor. The animal is removed from the testing apparatus and tested again, 24 hours later, for the ability to remember the electric shock. If scolopamine, an anticholinergic that is known to cause memory impairment, is administered before an animal's initial exposure to the test chamber, the animal re-enters the dark compartment shortly after being placed in the test chamber 24 hours later. This effect of scopolamine is blocked by an active test compound, resulting in a greater interval before re-entry into the dark compartment. The results for an active compound are expressed as the percent of a group of animals in which the effect of scopolamine is blocked, as manifested by an increased interval between being placed in the test chamber and re-entering the dark compartment.

For the molecule `c1ccn(Nc2ccncc2)c1` [N-(1H-Pyrrol-1-yl)-4-pyridinamine], the “% of Animals With Scopolamine Induced Memory Deficit Reversed” value (0.63 mg/kg by body weight) was found to be 21%. Take `CN(c1ccncc1)n1cccc1.Cl` [N-Methyl-N-(1H-pyrrol-1-yl)-4-pyridinamine hydrochloride]: under “2.5 mg/kg by body weight”, the “% of Animals With Scopolamine Induced Memory Deficit Reversed” value was 43%. Take `CN(c1ccncc1)n1cccc1C=O` [1-[N-Methyl-N-(4-pyridinyl)]aminopyrrole-2-carboxaldehyde maleate]: the “% of Animals With Scopolamine Induced Memory Deficit Reversed” value (1.25 mg/kg by body weight) is on record as 60%. As for `CC(O)c1cccn1N(C)c1ccncc1` (stereo not drawn) [α-methyl-1-[[N-(4-pyridinyl)-N-methyl]amino]-1H-pyrrole-2-methanol maleate], where the note is “5.0 mg/kg by body weight”, the “% of Animals With Scopolamine Induced Memory Deficit Reversed” value was found to be 19%.

Regarding `CC[C@@H]1C(=O)OC[C@@H]1Cc1cncn1C` [Pilocarpine, reference compound], the “% of Animals With Scopolamine Induced Memory Deficit Reversed” value (5.0 mg/kg by body weight) amounted to 23%.

As for `CCN(c1ccncc1)n1cccc1Cl.Cl` [N-(2-Chloro-1H-pyrrol-1-yl)-N-ethyl-4-pyridinamine hydrochloride], the “% of Animals With Scopolamine Induced Memory Deficit Reversed” value (2.5 mg/kg by body weight) stood at 33%.
